Patent US7232690B1, “Method and device for detecting and isolating pharmacological compounds being contained in substance mixtures” (LTS Lohmann Therapie-Systeme AG, priority 1999, dated 2007)

Target: β2-adrenoreceptor (Homo sapiens, UniProt P07550)
Experiment: Ultrafiltration target-binding test of extract of taraxacum with β2-adrenoreceptor membrane preparation (Example 3)
[1] = Sample 351, no receptor, extract 1.5 mg (7.5 g/l)
[2] = Sample 355, receptor 1.04 pmol (5.2 nmol/l), extract 1.5 pmol (7.5 nmol/l)
[3] = Sample 356, receptor 1.04 pmol (5.2 nmol/l), extract 1.5 pmol (7.5 nmol/l)
[4] = Sample 360, no receptor, extract 0.3 mg (1.5 g/l)
[5] = Sample 361, receptor 1.04 pmol (5.2 nmol/l), extract 0.3 mg (1.5 g/l)
[6] = Sample 362, no receptor, extract 0.6 mg (3 g/l)
[7] = Sample 363, receptor 1.04 pmol (5.2 nmol/l), extract 0.6 mg (3 g/l)
[8] = Sample 364, no receptor, extract 1.0 mg (5.0 g/l)
[9] = Sample 365, receptor 1.04 pmol (5.2 nmol/l), extract 1.0 mg (5.0 g/l)
[10] = Sample 366, receptor 1.04 pmol (5.2 nmol/l), extract 1.5 mg (7.5 g/l)
[11] = Sample 367, receptor 1.04 pmol (5.2 nmol/l), extract 1.5 mg (7.5 g/l)
[12] = Sample 369, receptor 1.04 pmol (5.2 nmol/l), extract 1.5 mg (7.5 g/l)
[13] = Sample 373, receptor 1.04 pmol (5.2 nmol/l), extract 1.5 mg (7.5 g/l)
[14] = Sample 374, receptor 0.52 pmol (2.6 nmol/l), extract 1.5 mg (7.5 g/l)
[15] = Sample 375, receptor 0.26 pmol (1.3 nmol/l), extract 1.5 mg (7.5 g/l)

Chain of β2-adrenoreceptor (P07550 whole entry): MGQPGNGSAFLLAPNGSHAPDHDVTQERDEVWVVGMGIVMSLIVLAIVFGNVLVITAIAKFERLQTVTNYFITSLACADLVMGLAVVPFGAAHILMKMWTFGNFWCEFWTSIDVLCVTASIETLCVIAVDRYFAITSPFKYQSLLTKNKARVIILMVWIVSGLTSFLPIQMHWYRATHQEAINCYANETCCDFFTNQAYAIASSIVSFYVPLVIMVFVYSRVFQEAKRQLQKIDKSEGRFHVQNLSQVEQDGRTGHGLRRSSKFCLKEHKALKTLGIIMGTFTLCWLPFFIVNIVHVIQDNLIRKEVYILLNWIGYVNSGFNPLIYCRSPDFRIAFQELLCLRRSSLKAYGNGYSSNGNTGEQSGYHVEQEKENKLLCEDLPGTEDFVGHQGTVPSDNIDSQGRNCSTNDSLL
Procedure: Substance used for the assays: • a) extr. taraxaci spir. sicc.
In the assays, the extract of taraxacum and the membrane preparation were combined in different stoichiometric ratios, dissolved in 200 μl of binding buffer (150 mM of NaCl, 50 mM of tris, pH 8.2 in water).
The receptor-ligand binding was completed by 30-minute-long incubation of the mixture at 30-34° C. The solutions were then placed on a Microcon 10 centrifugal filter and centrifuged at 9981×g for 15 min or until dryness of the filter. […] After two washing steps with binding buffer, the complexes present on the filter were separated by treatment with 200 μl of TFA (1/49.5/49.5).
The eluates from the following four filtration steps were centrifuged under vacuum until dryness, and the substances obtained were dissolved by means of ultrasound in 10 μl of the mobile phase of the HPLC (cf. Example 1), shortly before LC analysis.

For O=C(/C=C/c1ccc(O)c(O)c1)OC(C(=O)O)C(O)C(=O)O (stereo not drawn) [Substance L3, trans-caftarinic acid], the “1st Wash” value [1] was 51.0 nmol/L, the “2nd Wash” value [1] was 8.0 nmol/L and the Filtrate [1] was 740.3 nmol/L. The Liberation [1] was 11.9 nmol/L, the “1st Wash” value [2] was 88.8 nmol/L and the “2nd Wash” value [2] was 12.9 nmol/L. The Filtrate [2] was 353.5 nmol/L, the Liberation [2] was 15.8 nmol/L and the “1st Wash” value [3] was 79.0 nmol/L. For the same molecule, the “2nd Wash” value [3] was 9.9 nmol/L, the Filtrate [3] was 961.9 nmol/L and the Liberation [3] was 26.3 nmol/L. The “1st Wash” value [4] was 22.7 nmol/L, the “2nd Wash” value [4] was 0 nmol/L and the Filtrate [4] was 411.5 nmol/L. For the same molecule, the Liberation [4] was 8.1 nmol/L, the “1st Wash” value [5] was 16.5 nmol/L and the “2nd Wash” value [5] was 29.6 nmol/L. The Filtrate [5] was 537.0 nmol/L, the Liberation [5] was 11.2 nmol/L and the “1st Wash” value [6] was 20.5 nmol/L. For the same molecule, the “2nd Wash” value [6] was 5.6 nmol/L, the Filtrate [6] was 650.1 nmol/L and the Liberation [6] was 3.2 nmol/L. The “1st Wash” value [7] was 54.4 nmol/L, the “2nd Wash” value [7] was 0 nmol/L and the Filtrate [7] was 736.9 nmol/L. For the same molecule, the Liberation [7] was 8.7 nmol/L, the “1st Wash” value [8] was 36.9 nmol/L and the “2nd Wash” value [8] was 3.0 nmol/L. For the same molecule, the Filtrate [8] was 1034.4 nmol/L, the Liberation [8] was 5.3 nmol/L and the “1st Wash” value [9] was 51.7 nmol/L. The “2nd Wash” value [9] was 8.6 nmol/L, the Filtrate [9] was 1221.4 nmol/L and the Liberation [9] was 9.8 nmol/L. For the same molecule, the “1st Wash” value [10] was 102.8 nmol/L, the “2nd Wash” value [10] was 2.3 nmol/L and the Filtrate [10] was 2088.5 nmol/L. The Liberation [10] was 7.6 nmol/L, the “1st Wash” value [11] was 46.2 nmol/L and the “2nd Wash” value [11] was 15.6 nmol/L. The Filtrate [11] was 2310.8 nmol/L, the Liberation [11] was 6.3 nmol/L and the “1st Wash” value [12] was 90.8 nmol/L. For the same molecule, the “2nd Wash” value [12] was 41.8 nmol/L, the Filtrate [12] was 2381.4 nmol/L and the Liberation [12] was 7.0 nmol/L. For the same molecule, the “1st Wash” value [13] was 91.7 nmol/L, the “2nd Wash” value [13] was 26.6 nmol/L and the Filtrate [13] was 2450.0 nmol/L. For the same molecule, the Liberation [13] was 36.2 nmol/L, the “1st Wash” value [14] was 44.0 nmol/L and the “2nd Wash” value [14] was 7.4 nmol/L. The Filtrate [14] was 2593.2 nmol/L, the Liberation [14] was 25.3 nmol/L and the “1st Wash” value [15] was 39.7 nmol/L. The “2nd Wash” value [15] was 19.6 nmol/L, the Filtrate [15] was 2252.1 nmol/L and the Liberation [15] was 19.0 nmol/L.

In the case of O=C(/C=C/c1ccc(O)c(O)c1)O[C@@H](C(=O)O)[C@@H](OC(=O)/C=C/c1ccc(O)c(O)c1)C(=O)O [Substance L6, trans-chicorinic acid], the “1st Wash” value [1] is reported as 15045 nmol/L, the “2nd Wash” value [1] is reported as 750.8 nmol/L and the Filtrate [1] is reported as 5970.7 nmol/L. For the same molecule, the Liberation [1] was 195.0 nmol/L, the “1st Wash” value [2] was 451.4 nmol/L and the “2nd Wash” value [2] was 100.4 nmol/L. The Filtrate [2] was 1482.0 nmol/L, the Liberation [2] was 707.0 nmol/L and the “1st Wash” value [3] was 600.1 nmol/L. For the same molecule, the “2nd Wash” value [3] was 202.1 nmol/L, the Filtrate [3] was 1848.6 nmol/L and the Liberation [3] was 2199.1 nmol/L. For the same molecule, the “1st Wash” value [4] was 468.9 nmol/L, the “2nd Wash” value [4] was 140.3 nmol/L and the Filtrate [4] was 2935.2 nmol/L. The Liberation [4] was 34.7 nmol/L, the “1st Wash” value [5] was 146.5 nmol/L and the “2nd Wash” value [5] was 124.3 nmol/L. The Filtrate [5] was 1588.2 nmol/L, the Liberation [5] was 138.1 nmol/L and the “1st Wash” value [6] was 958.0 nmol/L. The “2nd Wash” value [6] was 351.4 nmol/L, the Filtrate [6] was 3446.6 nmol/L and the Liberation [6] was 85.4 nmol/L. The “1st Wash” value [7] was 248.3 nmol/L, the “2nd Wash” value [7] was 142.0 nmol/L and the Filtrate [7] was 1180.6 nmol/L. For the same molecule, the Liberation [7] was 257.0 nmol/L, the “1st Wash” value [8] was 1377.0 nmol/L and the “2nd Wash” value [8] was 627.8 nmol/L. The Filtrate [8] was 3752.4 nmol/L, the Liberation [8] was 151.3 nmol/L and the “1st Wash” value [9] was 626.7 nmol/L. The “2nd Wash” value [9] was 141.6 nmol/L, the Filtrate [9] was 2291.6 nmol/L and the Liberation [9] was 439.6 nmol/L. The “1st Wash” value [10] was 620.0 nmol/L, the “2nd Wash” value [10] was 181.5 nmol/L and the Filtrate [10] was 5581.8 nmol/L. For the same molecule, the Liberation [10] was 504.8 nmol/L, the “1st Wash” value [11] was 832.5 nmol/L and the “2nd Wash” value [11] was 274.6 nmol/L. For the same molecule, the Filtrate [11] was 5159.0 nmol/L, the Liberation [11] was 616.8 nmol/L and the “1st Wash” value [12] was 478.1 nmol/L. The “2nd Wash” value [12] was 341.9 nmol/L, the Filtrate [12] was 7449.7 nmol/L and the Liberation [12] was 674.0 nmol/L. For the same molecule, the “1st Wash” value [13] was 182.7 nmol/L, the “2nd Wash” value [13] was 277.1 nmol/L and the Filtrate [13] was 5562.6 nmol/L. For the same molecule, the Liberation [13] was 2096.1 nmol/L, the “1st Wash” value [14] was 1062.4 nmol/L and the “2nd Wash” value [14] was 476.6 nmol/L. For the same molecule, the Filtrate [14] was 8589.0 nmol/L, the Liberation [14] was 1015.4 nmol/L and the “1st Wash” value [15] was 921.1 nmol/L. The “2nd Wash” value [15] was 433.9 nmol/L, the Filtrate [15] was 10838.5 nmol/L and the Liberation [15] was 279.9 nmol/L.
